Structures can show the parent of a compound that is named as a salt. Where two headings read alike, the source gives them in different places.
Experiments:
[1] = tested on: adriamycin-resistant subline (P388/ADR); test: inhibition of growth rate of adriamycin-resistant subline P388/ADR; assay type: cell-based, murine; conditions: P388/ADR cells, compound alone, read-out: B: IC50 for the adriamycin-resistant subline (P388/ADR)
Excerpt: Such cancer cells are characterized by the fact that they are resistant to a large variety of anti-tumour agents and thus become extremely and increasingly difficult to treat. The compounds of formula I, including those described in British Patent Specification No. 883013, and salts thereof lower this resistance and thus greatly increase the effectiveness of drugs conventionally used in chemotherapy. Such properties can be tested according to the method described in Br. J. […] The Table which follows sets forth for a representative number of compounds of formula I B: the IC50 for the adriamycin-resistant subline (P388/ADR); and […]

[2] = toxicity, LD50 i.p. after administration of a single dose to mice; conditions: mouse, in vivo, ip, read-out: T: toxicity, LD50
Excerpt: For some of these compounds, the Table also contains toxicity data ("T", LD50, mg/kg i.p. after administration of a single dose to mice).

[3] = tested on: P388 murine leukemia cells; test: inhibition of growth rate of P388 cells; assay type: cell-based; conditions: Mus musculus
Excerpt: (§1) Such cancer cells are characterized by the fact that they are resistant to a large variety of anti-tumour agents and thus become extremely and increasingly difficult to treat. […] Such properties can be tested according to the method described in Br. J.

P388/ADR cells = test: inhibition of P388/ADR cells in the presence of a subtoxic concentration of adriamycin (restoring drug sensitivity); assay type: cell-based, murine; conditions: Mus musculus
Excerpt: as §1

[4] = P388, read-out: A: concentration for inhibiting the growth rate of P388 cells by 50% (IC50), P388 cells, compound alone
[5] = P388/ADR, read-out: C: IC50 for P388/ADR cells, measured in the presence of a subtoxic concentration of adriamycin, P388/ADR cells, with adriamycin 0.2 μM
[6] = P388 cells, compound alone, read-out: A: concentration for inhibiting the growth rate of P388 cells by 50% (IC50)
[7] = P388/ADR cells, with adriamycin 0.2 μM, read-out: C: IC50 for P388/ADR cells, measured in the presence of a subtoxic concentration of adriamycin

SMILES | IC50 ([1]; Mus musculus, P388/ADR) | IC50 ([1]; dihydrochloride) | LD50 [2] | IC50 [3, 4] | IC50 (P388/ADR cells; [5]) | IC50 [3, 6] | IC50 (P388/ADR cells; [7])
CCC(C(=O)OCCN1CCN(CCOC(=O)C(CC)c2ccccc2)CC1)c1ccccc1.Cl.Cl (centres unmarked) [Compound 480, N,N'-bis[2-(2-phenyl-2-ethylacetoxy)ethyl]piperazine dihydrochloride] | 60 µM | 45 µM | 100 to 200 mg/kg |  |  |  | 
CCC(C(=O)OCCN1CCN(CCC(=O)Nc2c(C)cccc2C)CC1)c1ccccc1 (centres unmarked) [Compound 1774, 3-[1-(2-Phenyl-2-ethylacetoxy)ethyl-4-piperazino]propion-2,6-dimethylanilide dihydrochloride] | > 60 µM |  | ~200 mg/kg | > 60 µM | 1200 nM |  | 
CCC(C(=O)OCCN1CCN(CCOC(=O)C(CC)c2ccccc2F)CC1)c1ccccc1F (centres unmarked) [Compound 1775, N,N'-bis[2-[2-(2-fluorophenyl)-2-ethylacetoxy]ethyl]piperazine dihydrochloride] | 60 µM |  |  |  |  | 60 µM | 1500 nM
CCC(C(=O)OCCN1CCN(CCOC(=O)C(CC)c2ccccc2C)CC1)c1ccccc1C.Cl.Cl (centres unmarked) [Compound 1776, N,N'-bis[2-[2-(2-methylphenyl)-2-ethylacetoxy]ethyl]piperazine dihydrochloride] | 30 µM |  | 200 to 400 mg/kg | 30 µM | 800 nM |  | 
CCC(C(=O)OCCN1CCN(CCOC(=O)C(CC)c2ccc(F)cc2)CC1)c1ccc(F)cc1 (centres unmarked) [Compound 1777, N,N'-bis[2-[2-(4-fluorophenyl)-2-ethylacetoxy]ethyl]piperazine dihydrochloride] | 60 µM |  |  |  |  | 60 µM | 1200 nM
CCC(C(=O)OCCN1CCN(CCOC(=O)C(CC)c2ccc(Cl)cc2)CC1)c1ccc(Cl)cc1 (centres unmarked) [Compound 1778, N,N'-bis[2-[2-(4-chlorophenyl)-2-ethylacetoxy]ethyl]piperazine dihydrochloride] | 20 µM |  |  |  |  | 30 µM | 1000 nM
CCC(C(=O)OCCN1CCN(CCOC(=O)C(CC)c2ccccc2Cl)CC1)c1ccccc1Cl (centres unmarked) [Compound 1779, N,N'-bis[2-[2-(2-chlorophenyl)-2-ethylacetoxy]ethyl]piperazine dihydrochloride] | 40 µM |  |  |  |  | 60 µM | 1000 nM
CCC(C(=O)OCCN1CCN(CCOC(=O)C(CC)c2ccc(OC)c(OC)c2)CC1)c1ccc(OC)c(OC)c1.Cl.Cl (centres unmarked) [Compound 1835, N,N'-bis[2-[2-(3,4-dimethoxyphenyl)-2-ethylacetoxy]ethyl]piperazine dihydrochloride] | 120 µM |  | ~200 mg/kg | 120 µM | 1200 nM |  | 
CCCC(C(=O)OCCN1CCN(CCOC(=O)C(CCC)c2ccccc2)CC1)c1ccccc1 (centres unmarked) [Compound 1838, N,N'-bis[2-(2-n-propyl-2-phenylacetoxy)ethyl]piperazine] | 20 µM |  | 200 to 400 mg/kg | 20 µM | 200 nM |  | 
O=C(OCCN1CCN(CCOC(=O)C(c2ccccc2)c2ccccc2)CC1)C(c1ccccc1)c1ccccc1 [Compound 1839, N,N'-bis(2-diphenylacetoxyethyl)piperazine] | > 60 µM |  | 200 to 400 mg/kg | > 60 µM | 200 nM |  | 
CCC(C(=O)OCCCN1CCN(CCCOC(=O)C(CC)c2ccccc2)CC1)c1ccccc1 (centres unmarked) [Compound 1843, N,N'-bis[3-(2-phenyl-2-ethylacetoxy)propyl]piperazine] | 8 µM |  |  |  |  | 7 µM | 450 nM
CCCCC(C(=O)OCCN1CCN(CCOC(=O)C(CCCC)c2ccc(OC)c(OC)c2)CC1)c1ccc(OC)c(OC)c1 (centres unmarked) [Compound 1849, N,N'-bis[2-[2-n-butyl-2-(3,4-dimethoxyphenyl)acetoxy]ethyl]piperazine dihydrochloride] | 10 µM |  |  |  |  | 12 µM | 200 nM
CCCC(C(=O)OCCN1CCN(CCOC(=O)C(CCC)c2ccc(OC)c(OC)c2)CC1)c1ccc(OC)c(OC)c1 (centres unmarked) [Compound 1850, N,N'-bis[2-[2-(3,4-dimethoxyphenyl)-2-propylacetoxy]ethyl]piperazine dihydrochloride] | 20 µM |  |  |  |  | 20 µM | 200 nM
Cc1cccc(C)c1NC(=O)CCN1CCN(CCOC(=O)C(c2ccccc2)c2ccccc2)CC1 [Compound 1853, 3-[1-(2-diphenylacetoxyethyl)-4-piperazino]propion-2,6-dimethylanilide dihydrochloride] | 60 µM |  |  |  |  | 60 µM | 1200 nM
CC(C(=O)OCCN1CCN(CCOC(=O)C(C)(c2ccccc2)c2ccccc2)CC1)(c1ccccc1)c1ccccc1 [Compound 1854, N,N'-bis[2-(2,2-diphenyl-2-methylacetoxy)ethyl]piperazine dihydrochloride] | 45 µM |  |  |  |  | 20 µM | 200 nM
